Measurements reported in patent publication US20250101063A1, “POLYPEPTIDE COMPOUND AND USE THEREOF IN TREATMENT OF ENTERITIS” (Sichuan Gooddoctor Panxi Pharmaceutical Co., Ltd., priority 2022, published 2025).
Where no end group is shown, it is not given here. [ ]: non-standard residue; d: D form.

Each compound was assayed on zebrafish model of intestinal mucosal injury (assay: Efficacy in relieving colitis: intestinal lumen area in TNBS-treated zebrafish). Settings: 15.0 μg/mL (positive control), 2 days after TNBS, n = 10.
Format: in vivo
Design: key to Activity in relieving intestinal lumen dilatation: * p < 0.05; ** p < 0.01; *** p < 0.001; “−“ indicates absence of activity; “+” indicates some relief of intestinal lumen dilatation; “#” indicates that all the zebrafishes died in the experiment; “&” indicates that 13 zebrafishes died in the experiment
Description: Experimental animals: Wild-type AB strain zebrafishes, bred by natural pair mating. Zebrafishes aged 3 days post fertilization (3 dpf). Zebrafishes were kept in fish farming water at 28° C. (water quality: 200 mg of instant sea salt in each 1L of reverse osmosis water, with the conductivity of 450-550 μS/cm; pH of 6.5-8.5; and hardness of 50-100 mg/L CaCO3), the experimental animal use license number is: SYXK (Zhe) 2012-0171, and the breeding management met the requirements of the international AAALAC certification (certification number: 001458).
(1) Grouping: Polypeptide group: prepared into a stock solution of 20.0 mg/mL with ultrapure water and stored at −20° C.
Positive control group: prednisone, as white powder, with batch number C10016501, Shanghai Macklin Biochemical Technology Co., Ltd., stored at 4° C.; prepared into a 15.0 mg/mL stock solution with DMSO, and stored in aliquots at −20° C.
Normal control group and model control group.
(2) Experimental method: 3 dpf wild-type AB strain zebrafishes were randomly selected and placed in a 6-well plate, with 30 zebrafishes in each well (experimental group). Except for the normal control group, all other experimental groups were given TNBS in water to establish the zebrafish model of intestinal mucosal injury. After 2 days of treatment at 28° C., TNBS was removed, and polypeptide compound in water (at concentrations shown in Table 4) was given respectively, and for the positive control, prednisone was 15.0 μg/mL. A normal control group (healthy group) and a model control group (intestinal mucosal injury group) were set up at the same time. The capacity of each well (experimental group) was 3 mL. After 2 days of treatment at 28° C., 10 zebrafishes were randomly selected from each experimental group and photographed under a dissecting microscope. NIS-Elements D 3.20 advanced image processing software was used to analyze and collect data, and the intestinal lumen area of the zebrafish was analyzed. The statistical analysis results of this indicator were used to evaluate the efficacy of the samples in relieving colitis. The statistics results were expressed as mean±SE. SPSS26.0 software was used for statistical analysis, and p<0.05 indicates statistically significant difference.
The concentration gradient of the test substances set in this experimental system was 250 μg/mL, 500 μg/mL, and 1000 μg/mL. […] When the concentration of the test substance was further increased for intervention, the death phenomenon of zebrafishes was found in the group; therefore, in the subsequent rounds of activity evaluation, each test polypeptide compound was uniformly administered at 1000 μg/mL for intervention.

| Compound | Intestinal lumen area (pixels, mean ± SE) |
| --- | --- |
| C[C@]12C=CC(=O)C=C1CC[C@@H]1[C@@H]2C(=O)C[C@@]2(C)[C@H]1CC[C@]2(O)C(=O)CO [Prednisone, prednisone, reference compound] | 34929 ± 1913 pixels |

Same assay, conditions: 250 μg/mL in water, 2 days after TNBS, n = 10

| Compound | Intestinal lumen area (pixels, mean ± SE) |
| --- | --- |
| Arg-Lys-Val-Ala (RKVA; printed: Arg-Lys-Val-Ala) [Compound 15] | 40719 ± 4647 pixels |
| KEPVPQAK [Compound 4] | 48915 ± 2720 pixels |

Same assay, conditions: 500 μg/mL in water, 2 days after TNBS, n = 10

| Compound | Intestinal lumen area (pixels, mean ± SE) |
| --- | --- |
| Arg-Lys-Val-Ala (RKVA; printed: Arg-Lys-Val-Ala) [Compound 15] | 31319 ± 5274 pixels |
| KEPVPQAK [Compound 4] | 40432 ± 3736 pixels |

Same assay, conditions: 1000 μg/mL in water, 2 days after TNBS, n = 10

| Compound | Intestinal lumen area (pixels, mean ± SE) |
| --- | --- |
| Arg-Lys-Val-Ala (RKVA; printed: Arg-Lys-Val-Ala) [Compound 15] | 30268 ± 2437 pixels |
| KEPVPQAK [Compound 4] | 33664 ± 3758 pixels |

Same assay, conditions: 1000 μg/mL; significance vs model control group of the same batch

| Compound | Activity in relieving intestinal lumen dilatation |
| --- | --- |
| AEPVPQAKPRKVAAQ [Compound 19] | + |
| APVPQAK [Compound 46] | + |
| Ala-Lys-Pro-Arg (AKPR; printed: Ala-Lys-Pro-Arg) [Compound 11] | + |
| Arg-Lys-Val-Ala (RKVA; printed: Arg-Lys-Val-Ala) [Compound 15] | * (* p < 0.05) |
| D-Glu-Pro-Val-Pro-Gln-Ala-Lys ([dE]PVPQAK; also: acetate salt) [Compound 78] | + |
| DPVPQAK [Compound 49] | * (* p < 0.05) |
| EAVPQAK [Compound 53] | * (* p < 0.05) |
| EGVPQAK [Compound 76] | + |
| EPAPQAK [Compound 52] | + |
| EPVAQAK [Compound 54] | *** (*** p < 0.001) |
| EPVGQAK [Compound 77] | − |
| EPVPAAK [Compound 47] | + |
| EPVPEAK [Compound 55] | * (* p < 0.05) |
| EPVPQAA [Compound 48] | ** (** p < 0.01) |
| EPVPQAKP [Compound 58] | + |
| EPVPQAKPR [Compound 57] | ** (** p < 0.01) |
| EPVPQAKPRK [Compound 38] | * (* p < 0.05) |
| EPVPQAKPRKVA [Compound 51] | * (* p < 0.05) |
| EPVPQAKVPY [Compound 102] | + |
| EPVPQAR [Compound 45] | # |
| EPVPQA[dK] [Compound 84] | + |
| EPVPQ[dA]K [Compound 83] | * (* p < 0.05) |
| EPVP[dQ]AK [Compound 82] | + |
| EPV[dP]QAK [Compound 81] | + |
| EP[dV]PQAK [Compound 80] | + |

| Compound | Activity in relieving intestinal lumen dilatation |
| --- | --- |
| E[dP]VPQAK [Compound 79] | + |
| GPETAFLREPVPQAK [Compound 96] | *** (*** p < 0.001) |
| GPETAFLRKEPVPQAKPRKVAAQ [Compound 95] | ** (** p < 0.01) |
| Gln-Ala-Lys-Pro (QAKP; printed: Gln-Ala-Lys-Pro) [Compound 17] | + |
| Glu-Pro-Val-Pro (EPVP; printed: Glu-Pro-Val-Pro) [Compound 9] | ** (** p < 0.01) |
| Glu-Pro-Val-Pro-Gln (EPVPQ; printed: Glu-Pro-Val-Pro-Gln) [Compound 86] | * (* p < 0.05) |
| KAPVPQAKPRKVAAQ [Compound 20] | & |
| KEAVPQAKPRKVAAQ [Compound 21] | + |
| KEGVGQAKGRKVAAQ [Compound 35] | − |
| KEGVGQAKPRKVAAQ [Compound 37] | + |
| KEGVPQAKGRKVAAQ [Compound 36] | + |
| KEGVPQAKPRKVAAQ [Compound 31] | * (* p < 0.05) |
| KEPAPQAKPRKVAAQ [Compound 25] | ** (** p < 0.01) |
| KEPIPQAKPRKVAAQ [Compound 106] | ** (** p < 0.01) |
| KEPVAQAKPRKVAAQ [Compound 22] | + |
| KEPVGQAKGRKVAAQ [Compound 34] | * (* p < 0.05) |
| KEPVGQAKPRKVAAQ [Compound 32] | + |
| KEPVPAAKPRKVAAQ [Compound 23] | + |
| KEPVPQ [Compound 87] | + |
| KEPVPQAAPRKVAAQ [Compound 24] | + |
| KEPVPQAK [Compound 4] | * (* p < 0.05) |
| KEPVPQAKARKVAAQ [Compound 26] | * (* p < 0.05) |
| KEPVPQAKGRKVAAQ [Compound 33] | + |
| KEPVPQAKPAKVAAQ [Compound 27] | + |
| KEPVPQAKPRAVAAQ [Compound 28] | + |

| Compound | Activity in relieving intestinal lumen dilatation |
| --- | --- |
| KEPVPQAKPRKAAAQ [Compound 29] | * (* p < 0.05) |
| KEPVPQAKPRKVAAA [Compound 30] | + |
| KEPVPQAKPRKVAAE [Compound 103] | * (* p < 0.05) |
| KEPVPQAKPRKVAAN [Compound 104] | *** (*** p < 0.001) |
| KEPVPQAKPRKVAA[dQ] [Compound 75] | * (* p < 0.05) |
| KEPVPQAKPRKVA[dA]Q [Compound 74] | + |
| KEPVPQAKPRK[dV]AAQ [Compound 72] | ** (** p < 0.01) |
| KEPVPQAKPR[dK]VAAQ [Compound 71] | + |
| KEPVPQAKP[dR]KVAAQ [Compound 70] | * (* p < 0.05) |
| KEPVPQAK[dP]RKVAAQ [Compound 69] | + |
| KEPVPQA[dK]PRKVAAQ [Compound 68] | ** (** p < 0.01) |
| KEPVPQ[dA]KPRKVAAQ [Compound 67] | * (* p < 0.05) |
| KEPVP[dQ]AKPRKVAAQ [Compound 66] | * (* p < 0.05) |
| KEPV[dP]QAKPRKVAAQ [Compound 65] | * (* p < 0.05) |
| KEP[dV]PQAKPRKVAAQ [Compound 64] | + |
| KE[dP]VPQAKPRKVAAQ [Compound 63] | *** (*** p < 0.001) |
| KQPVPQAKPRKVAAQ [Compound 105] | ** (** p < 0.01) |
| K[dE]PVPQAKPRKVAAQ [Compound 62] | * (* p < 0.05) |
| Lys-Glu-Pro-Val (KEPV; printed: Lys-Glu-Pro-Val) [Compound 7] | + |
| Lys-Glu-Pro-Val-Pro (KEPVP; printed: Lys-Glu-Pro-Val-Pro) [Compound 85] | * (* p < 0.05) |
| Lys-Pro-Arg-Lys (KPRK; printed: Lys-Pro-Arg-Lys) [Compound 10] | ** (** p < 0.01) |
| Lys-Val-Ala-Ala (KVAA; printed: Lys-Val-Ala-Ala) [Compound 16] | + |
| NPVPQAK [Compound 50] | * (* p < 0.05) |
| PAYKEPVPQAKPRKVAAQ [Compound 90] | * (* p < 0.05) |

Same assay, conditions: 250, 500, 1000 μg/mL; Table 4

| Compound | Intestinal lumen area compared with the model control group (in words) |
| --- | --- |
| Arg-Lys-Val-Ala (RKVA; printed: Arg-Lys-Val-Ala) [Compound 15] | significant statistical differences compared with the model control group |
| KEPVPQAK [Compound 4] | significant statistical differences compared with the model control group |
